According to US5608084A, “Lactones with antioxidising and hypolipidaemic activity useful in the therapy of the atherosclerosis” (priority 1994, dated 1997):

Test system: B-100 apolipoprotein
Assay: Relative electrophoretic mobility of oxidized LDL on agarose gel (surface-negative charge of B-100 apolipoprotein)
Format: biochemical, human
Conditions: 10 μM; for REM (%) at 180': 180 minutes; for REM (%) at 180' / REM (%) at 360': native LDL = 0, copper-oxidized LDL with ethanol at 360 minutes = 100; for REM (%) at 360': 360 minutes
Description: The determination of the melting point has been carried out by means of a capillary melting point apparatus Electrothermal, without any correction. The I.R. spectrum has been obtained by means of a Perkin-Elmer rood. 963/G spectrophotometer generally, when not otherwise specified, preparing the specimen in potassium bromide and recording the spectrum between 4000 and 600 nm. […] The mass spectrum has been recorded by using a VG 7070E mass spectrometer, at a 70 eV ionization voltage and with a 6 Kvolt acceleration voltage. […] Chem., 43, 2923, (1978). […] The antioxidant activity has been evaluated through the capability of some lactones of formula I to prevent and/or delay the oxidative modification of the lipoproteins (LDL), caused by a chemical method by incubating native LDL with cupric ions, according to the method described by Steinbrecher U. P. in J. Biol. Chem., 262, 3603-3608, (1987). The evaluation of the oxidation degree of the LDL through the monitoring of the concentration of aldehydes derived from the degradation of the lipidic peroxides and the observation of the modifications of the B-100 apolipoprotein represent the used experimental approach. The antioxidant activity of the lactones has been expressed in terms of duration of the latency period that represents a parameter of the resistance to the oxidation of the LDL. The LDL have been isolated from the human plasma obtained from blood collected, in the presence of EDTA, from healty volunteers fasting from 8 hours according to the method described by Havel H. in J. Clin. Invest., 34, 1345-1353, (1955). The solution, dialyzed in Visking-Serva dialysis tubes at 4° C. for 72 hours in phosphate buffer (PBS) added with EDTA (0.24 mM), has been filtered through a membrane with 0.45μ porosity (Millex HV Filters) and the proteic concentration has been determined according to the method described by Lowry O. et al. in J. Biol. Chem., 193, 265-275, (1951). The solution has been diluted with PBS-EDTA at a concentration of 500 μg protein/ml and the obtained LDL have been incubated at 42° C. for 45 minutes in presence of the lactones solubilized in ethanol (1.7 μl/ml LDL). At the end of the incubation the solutions have been placed on ice for 45 minutes and dialyzed at 4° C. for 36 hours in PBS. The oxidation of the LDL has been carried out with 5 μM cupric sulfate at 37° C. and stopped at the experimental times by cooling at 4° C. and adding 0.24 mM of EDTA. The solutions of LDL have been kept at 4° C. and sheltered from light during the experimental procedure. […] 52, (1978).
The inhibition of the oxidative process has also been qualitatively studied through the evaluation of the modification of the surface-negative charge of the B-100 apolipoprotein by electrophoretic analysis on agarose gel, by using the method described in the kit "Titan gel Multi-slot lipo-17 electrophoresis system" (Cat. no. 3095), manufactured by Helena Laboratories.
The Bio-Phoresis Horizontal Electrophoresis Cell Bio-Rad (Cat. no. 1702900) has been used as electrophoretic cell. The modification of the surface-negative charge of the B-100 apolipoprotein, caused by the oxidation of the LDL, produces an increase of the anionic electrophoretic mobility. Therefore the evaluation of the varying of this electrophoretic datum, mobility in presence of antioxidant substances, represents an indirect measure of the antioxidant capabilities of the claimed compounds as reported by Vanderyse L. et al. in Atherosclerosis, 97, 187-199, (1992). […] The migration of the native LDL is taken as a reference equal to 0 (no electrophoretic migration), while the migration of the band of the copper-oxidized LDL at the time of 360 minutes, only in presence of ethanol, is taken as reference equal to 100.

| Compound | lowering of electrophoretic mobility of LDL compared with probucol | REM (%) at 180' [%] | REM (%) at 360' [%] |
| --- | --- | --- | --- |
| Cc1c(C)c2c(c(C)c1O)CCC(C)OC(=O)C(C)(C)CCCO2 (centres unmarked) [Example 3, 6,6,9,13,15,16-Hexamethyl-14-hydroxy-2,8-dioxabicyclo[10.4.0]hexadec-12,14,16-trien-7-one] | remarkably more effective than probucol | 15 | 30 |
| CCC1CCc2c(C)c(O)c(C)c(C)c2OCCCC(C)(C)C(=O)O1 (centres unmarked) [Example 6, 9-Ethyl-14-hydroxy-6,6,13,15,16-pentamethyl-2,8-dioxabicyclo[10.4.0]hexadec-12,14,16-trien-7-one] | remarkably more effective than probucol | 15 | 30 |
| CC(C)(Sc1cc(C(C)(C)C)c(O)c(C(C)(C)C)c1)Sc1cc(C(C)(C)C)c(O)c(C(C)(C)C)c1 [Probucol, reference compound] |  | 40 | 100 |
